# In US20250120942A1, “BRAIN FUNCTION IMPROVING AGENT” (OSAKA UNIVERSITY, priority 2021, published 2025):
# What was measured:
# [1] = tested on: scopolamine-induced amnesia mouse; test: Y-maze test, short-term working memory of scopolamine-induced amnesia mouse (Test Example 2); assay type: in vivo, ddY mouse; details: for scopolamine-induced reduction in working memory (Spontaneous Alternation): FIG. 2(C)
# Description: The effect of inhibiting lowering of short-term memory was examined by orally or subcutaneously (intraperitoneally) administering the compound A to the mouse.
# (§1) 7-weeks-old male ddY mice were purchased from Japan SLC, Inc. and subjected to the experiment after one week habituation period. The animals were reared in the rearing chamber provided with air conditioner (under the condition that the temperature was 22° C.±1° C., the relative humidity was 50±10%, and the irradiation time was 12 hours (8:00 to 20:00)). The feeding method was that the commercially available MF powdery feed (manufactured by Oriental Yeast Co., ltd.) and tap water were taken freely.
# The compound A prepared according to the procedure described in Manufacturing Example 1 was dissolved in 2.5% DMSO solution in advance. There were 15 mice in each group, and the 30 mg/kg compound administration group and the 10 mg/kg compound administration group were established and orally administered. The mice of the control group and Vehicle group were orally administered with only 2.5% DMSO solution. In the same manner the compound B and the compound C were orally administered to 10 mice at a dose of 30 mg/kg respectively. Each mouse of the administration groups of the compound A to C and the vehicle group was intraperitoneally administered with scopolamine hydrobromide (manufactured by Sigma-Aldrich Japan S1875) (a dose of 1 mg/kg) which is muscarinic acetylcholine receptor antagonist 30 minutes after the administration. The mice of the control group which were not administered with scopolamine hydrobromide were intraperitoneally administered with (Japanese Pharmacopoeia) physiological saline solution (OTSUKA NORMAL SALINE 3311401A2026). At 30 minutes after the final administration, Y-maze test was conducted, and the working memory was evaluated. The test using the mice orally administered was separately conducted under the same condition as that described above for comparative evaluation of the intraperitoneal administration.
# The Y-maze manufactured by Brain Science. idea Co., Ltd. was used for the test. The maze was the maze 3 courses of which were made into Y-letter shape having one selection point and arranged at interval of an angle of 120 degree. […] The mouse put on the gray course (made of polyvinyl chloride) was kept in the conditions and the mouse can see nothing but the upper part. Any one of the 3 courses of the maze was set as a starting point. After placing the mouse quietly at the starting point, the number of the times the mouse entered each course was record per 8 minutes, and as well as which course and in what order the mouse entered it. The ratio of the number of three consecutive entries into different courses (the number of the alternation behavior) to the total number of the selections was calculated as Spontaneous Alternation (%) according to the following formula and was used as an index of the short-term working memory.
# From the results obtained, the mean (Mean) and the standard error (SEM) were calculated. The significant difference between the control group and the Vehicle group and between the compound A administration group and the Vehicle group was assessed by Turkey-Kramer's test. The level of significance was set to *P<0.05 and **p<0.01.
# [2] = tested on: extracellular acetylcholine in the cerebral cortex; test: Amount of extracellular acetylcholine in mouse brain by in vivo microdialysis (Test Example 1); parameters: species or system ddY mouse; details: oral 30 mg/kg, FIG. 1
# Description: The compound A, B, and C were administered orally to the mouse and the effect on the amount of extracellular acetylcholine in the brain was examined. The brain microdyalysis method using the mouse is proposed as a test for evaluating cognitive dysfunction including Alzheimer type dementia. The brain microdyalysis method is a system that can monitor the variation of extracellular neurotransmitter release in real time at the local parts in the brain while the test animals are moving freely without anesthesia.
# as §1
# In the two days before the start of the experiment, the fixing operation of the guide cannula for inserting the dialysis probe in the mouse was conducted in advance. Under the deep anesthetized conditions, the guide cannula (depth 4 mm) (manufactured by Eicom Corp.,) was inserted in and fixed on cerebral cortex prefrontal area (which was 1.9 mm forward and 0.5 mm right side from the bregma and to which the depth from cranial surface was 0.8 mm). Buprenorphine (0.01 mg/kg manufactured by Sigma-Aldrich Japan) was administered to the mouse as analgesic after the operation. Each mouse was reared in the separate cage after the operation.
# In the step of measuring extracellular acetylcholine in the brain, the dialysis probe (membrane length 3 mm) (manufactured by Eicom Corp.,) was inserted in the guide cannula and the Ringer's solution in the Japanese Pharmacopeia (containing NaCl (147.2 mM), KCl (4.0 mM), and CaCl2 (2.2 mM); manufactured by FUSO CHEMICAL CO., LTD.) was perfused at the flow velocity of 1 μL/min. The sample obtained by the perfusion was collected every 20 minutes and was immediately continuously automatically injected in the high-speed liquid chromatography/electrochemical detector (HPLC/ECD) system (manufactured by Eicom Corp., HTEC-500) together with the internal standard material (isopropylhomocholine, 250 fmol) and acetylcholine was measured under the condition described below.
# • Column: Eicompak AC-GEL (2.0 mm; i.d.×150 mm) (manufactured by Eicom Corp.,) • Precolumn: PC-05-03 (3.0 mm; i.d.×40 mm) (manufactured by Eicom Corp.,) • Enzyme-immobilized column: AC-Enzympak (3.0 mm; i.d.) (manufactured by Eicom Corp.,) • Mobile Phase: 50 mM potassium hydrogen carbonate buffer containing 400 mg/L sodium decansulfonic acid and 134 μM EDTA (pH 8.3) • Flow Velocity: 150 μl/min. • Temperature of column: 33° C. • Applied voltage of ECD: +450 mV • Reference electrode: Ag/AgCl electrode • Work electrode: platinum electrode
# The compound A prepared according to the procedure described in Manufacturing Example 1 was dissolved in 2.5% DMSO solution in advance to prepare for the test. […] The amount of the extracellular acetylcholine released was measured by the procedure described above in (a) Used animal and Rearing Procedure in real time for 120 minutes after the administration. The mouse in Vehicle group took only 2.5% DMSO solution orally in the same way and the amount of the extracellular acetylcholine was measured. […]
smiles,measurement,setting,value
"O=C1CC[C@H](Cc2cc(O)cc(O)c2)O1 [compound A, (R)-5-(3,5-dihydroxyphenyl)-γ-valerolactone]",ameliorating the impairment of short-term working memory (Spontaneous Alternation),"[1]; oral 30 mg/kg, scopolamine 1 mg/kg i.p., FIG. 2(A),(B)",significant effect of inhibiting the lowering of short-term working memory
same,lowering of the short-term memory due to scopolamine (Spontaneous Alternation),"[1]; oral administration groups (10 mg/kg and 30 mg/kg), scopolamine 1 mg/kg i.p. 30 minutes later, FIG. 2(A)",inhibited
same,scopolamine-induced reduction in working memory (Spontaneous Alternation),[1]; oral administration,inhibited scopolamine-induced reductions in working memory
same,scopolamine-induced reduction in working memory (Spontaneous Alternation),[1]; subcutaneous administration,inhibited scopolamine-induced reductions in working memory
same,amount of extracellular acetylcholine in the cerebral cortex versus Vehicle group,[2]; 40 and 60 minutes after the administration,significant increase
same,amount of extracellular acetylcholine in the cerebral cortex (ratio to basic released amount),"[2]; measured for 120 minutes after administration, compared with before administration",increased
